The values that follow come from PubChem BioAssay (NCI).

Where “and” joins values, the source holds several entries; their conditions need not be identical. Identical values can stand only once.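 Following 48 hours of exposure in 96-well plates, responses at five concentrations were used to interpolate endpoints linearly. At the GI50, growth is halved. At the TGI there is no net growth.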

Among the test systems are DLD-1 colon; DMS 114 small cell lung; DMS 273 small cell lung; HOP-92 NSCLC; K-562 leukemia; NCI-H226 lung; SF-539 CNS; SK-MEL-2 melanoma; SNB-78 CNS; MCF7 breast; T-47D breast.
Common to all, as to test: NCI-60 cell line screen, 48 h

With `CC1(O)CC2C(CC1SCc1ccccc1)C2(C)C` (stereo not given), the GI50 in the test on DLD-1 colon is 42.4 µM and 16.6 µM; in the test on K-562 leukemia it was 33.3 µM and 12.3 µM; in the test with SNB-78 CNS, 76.7 µM and 17.9 µM. In addition, the TGI in the test on DLD-1 colon is > 100 µM and 30.2 µM; in the test with DMS 114 small cell lung, 33.1 µM; in the test with DMS 273 small cell lung it was 33.1 µM and 29.2 µM; in the test with HOP-92 NSCLC it was 66.4 µM and 14.4 µM; with K-562 leukemia, > 100 µM and 32.1 µM; in the test with NCI-H226 lung it was 42.5 µM and 30.1 µM. Moreover, the TGI with SF-539 CNS was 60.2 µM and 33.4 µM; with SK-MEL-2 melanoma, 33.3 µM and 26.1 µM; in the test on SNB-78 CNS it was > 100 µM and 34.9 µM.

As for `O=C(/C=N/O)Nc1cccc(Cl)c1I`, the TGI was over 100 µM with DLD-1 colon; 79.2 µM with DMS 114 small cell lung; over 100 µM in the test on DMS 273 small cell lung; over 100 µM with K-562 leukemia; over 100 µM with NCI-H226 lung; over 100 µM with SK-MEL-2 melanoma.

Take `CNC(=O)N(CCCCC(NC(C)=O)C(=O)NCc1ccccc1)Cc1ccccc1` (stereo not given): the TGI with DLD-1 colon, in the test on DMS 114 small cell lung, in the test with DMS 273 small cell lung, in the test on HOP-92 NSCLC, in the test on K-562 leukemia and in the test with NCI-H226 lung was over 100 µM in each case. Moreover, the TGI in the test with SF-539 CNS, in the test with SK-MEL-2 melanoma and in the test with SNB-78 CNS was over 100 µM in each case.

Take `COc1ccc(/C(C#N)=C2/O/C(=N/N)C(c3ccc(OC)c(OC)c3)C2=O)cc1OC` (stereo not given): the TGI in the test with DLD-1 colon, with DMS 273 small cell lung, in the test with HOP-92 NSCLC, with K-562 leukemia, in the test on NCI-H226 lung and in the test on SF-539 CNS was over 100 µM each time. Also, the TGI with SK-MEL-2 melanoma and with SNB-78 CNS was over 100 µM throughout.

As for `CCOc1ccc(N=Nc2c(-c3ccccc3)nn(C(=O)CC(=O)Nc3ccccc3Cl)c2-c2ccccc2)cc1`, the TGI with DLD-1 colon, in the test with DMS 114 small cell lung, with DMS 273 small cell lung, in the test with HOP-92 NSCLC, in the test with K-562 leukemia and with NCI-H226 lung was over 100 µM throughout. The TGI in the test with SF-539 CNS, in the test on SK-MEL-2 melanoma and in the test on SNB-78 CNS was over 100 µM throughout.

In the case of `COc1cc(OC)c(OC)cc1/C=C\c1ccnc2ccccc12`, the TGI is over 100 µM in the test on DLD-1 colon; 45 µM in the test with HOP-92 NSCLC; 31.3 µM with K-562 leukemia; over 100 µM in the test with MCF7 breast; 30.2 µM in the test on NCI-H226 lung; 1.32 µM in the test on SF-539 CNS. Moreover, the TGI in the test with SK-MEL-2 melanoma is 7.4 µM; in the test with SNB-78 CNS it was over 100 µM; in the test with T-47D breast, over 100 µM.

In the case of `COc1cc2c(c(OC)c1OC)-c1ccc(SC)c(=O)cc1C(CC(=O)Oc1ccccc1F)C2` (stereo not given), the TGI in the test with DLD-1 colon is over 7.5 µM; in the test with DMS 114 small cell lung it was 0.0438 µM; in the test on HOP-92 NSCLC, over 7.5 µM; in the test on K-562 leukemia it was over 7.5 µM; in the test with NCI-H226 lung, 0.444 µM; in the test with SK-MEL-2 melanoma, 0.125 µM. The TGI in the test with SNB-78 CNS is over 7.5 µM.

`CCOC(=O)C(=O)Nc1nc2ccc(OC)cc2s1`: the TGI in the test on DLD-1 colon, in the test on DMS 273 small cell lung, in the test on HOP-92 NSCLC, with K-562 leukemia, with NCI-H226 lung and in the test on SF-539 CNS was over 100 µM in each case. For the same compound, the TGI with SK-MEL-2 melanoma and in the test with SNB-78 CNS was over 100 µM throughout.

For `Nc1cccc(C(=O)/C=C/c2ccccc2O)c1`, the TGI with DLD-1 colon, in the test on DMS 114 small cell lung, in the test on DMS 273 small cell lung, with HOP-92 NSCLC, with K-562 leukemia and in the test on NCI-H226 lung was over 100 µM each time. For the same compound, the TGI with SF-539 CNS, with SK-MEL-2 melanoma and in the test on SNB-78 CNS was over 100 µM each time.

On to `COc1cc([C@H]2c3cc4c(cc3[C@H](NCc3ccc(F)cc3)C3COC(=O)[C@H]32)OCO4)cc(OC)c1O` (stereo not given in full), for which the TGI in the test on DLD-1 colon is over 100 µM; in the test with DMS 114 small cell lung, 18.7 µM; in the test with DMS 273 small cell lung, 13.8 µM; in the test with HOP-92 NSCLC, 49.5 µM; with K-562 leukemia, 41 µM; in the test on NCI-H226 lung, 7.61 µM. Further, the TGI in the test with SF-539 CNS came to 5.07 µM; in the test with SK-MEL-2 melanoma, 33.1 µM; in the test on SNB-78 CNS it was 78 µM.

Turning to `COc1ccc(C2C(C(=O)O)=C(COC(C)=O)Oc3cc4c(cc32)OCO4)c(OC)c1` (stereo not given), the TGI in the test with DLD-1 colon, with DMS 114 small cell lung, in the test with DMS 273 small cell lung, in the test with HOP-92 NSCLC, in the test with K-562 leukemia and with SF-539 CNS was over 100 µM each time. For the same compound, the TGI with SK-MEL-2 melanoma and in the test with SNB-78 CNS was over 100 µM each time.

For the compound `CCOC(=O)c1cnc2c(ccc3ncccc32)c1OCC`, the TGI in the test on DLD-1 colon, with DMS 114 small cell lung, in the test with DMS 273 small cell lung, with K-562 leukemia, in the test with NCI-H226 lung and in the test on SF-539 CNS was over 100 µM each time. Moreover, the TGI in the test on SK-MEL-2 melanoma and in the test with SNB-78 CNS was over 100 µM in each case.

As for `O=S1(=O)CS(=O)(=O)OCCCCCO1`, the TGI in the test on DLD-1 colon, in the test with DMS 114 small cell lung, with DMS 273 small cell lung, in the test with HOP-92 NSCLC, in the test with K-562 leukemia and in the test on NCI-H226 lung was over 100 µM each time. Moreover, the TGI in the test with SK-MEL-2 melanoma and in the test on SNB-78 CNS was over 100 µM in each case.

Consider `Cc1cc(N(CCC#N)CCC#N)ccc1/C=C1N=C(/C=C\c2ccccc2)N(c2ccc(C(=O)O)cc2)C\1=O`, for which the TGI in the test with DLD-1 colon, in the test on DMS 114 small cell lung, in the test with HOP-92 NSCLC, with K-562 leukemia, with NCI-H226 lung and in the test with SF-539 CNS was over 100 µM in each case. For the same compound, the TGI with SK-MEL-2 melanoma and with SNB-78 CNS was over 100 µM each time.

For `CN(C)CCC(/C=C/c1ccccc1)=N\Nc1c(F)c(F)c(F)c(F)c1F`, the TGI with DLD-1 colon, in the test on DMS 114 small cell lung, in the test on DMS 273 small cell lung, in the test on K-562 leukemia, in the test with SF-539 CNS and in the test with SK-MEL-2 melanoma was over 100 µM in each case. This compound showed a TGI in the test on SNB-78 CNS of over 100 µM.
